Biological target: T1, NLRP3 (Homo sapiens, UniProt Q96P20)
T1 construct: host or cells: THP-1 cells differentiated with PMA
Test: IL-1β Secretion Assay (NLRP3-dependent IL1β secretion in THP1 cells)
Type: cell-based
Settings: PMA-differentiated THP-1 cells; compounds incubated 20 h; 2.5 μM Nigericin 3 h; HTRF IL-1β readout; read-out: IC50 IL-1β Inhibition
Procedure, shortened: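 IL-1β in conditioned media, measured by HTRF after 3 h 2.5 μM nigericin stimulation, gave % inhibition fitted logistically for IC50. Before that, PMA-differentiated (100 ng/mL, 24 h) THP-1 cells were preincubated 20 h with 7 compound concentrations (3-fold serial, DMSO 1:200).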

T1 sequence (Q96P20 whole entry): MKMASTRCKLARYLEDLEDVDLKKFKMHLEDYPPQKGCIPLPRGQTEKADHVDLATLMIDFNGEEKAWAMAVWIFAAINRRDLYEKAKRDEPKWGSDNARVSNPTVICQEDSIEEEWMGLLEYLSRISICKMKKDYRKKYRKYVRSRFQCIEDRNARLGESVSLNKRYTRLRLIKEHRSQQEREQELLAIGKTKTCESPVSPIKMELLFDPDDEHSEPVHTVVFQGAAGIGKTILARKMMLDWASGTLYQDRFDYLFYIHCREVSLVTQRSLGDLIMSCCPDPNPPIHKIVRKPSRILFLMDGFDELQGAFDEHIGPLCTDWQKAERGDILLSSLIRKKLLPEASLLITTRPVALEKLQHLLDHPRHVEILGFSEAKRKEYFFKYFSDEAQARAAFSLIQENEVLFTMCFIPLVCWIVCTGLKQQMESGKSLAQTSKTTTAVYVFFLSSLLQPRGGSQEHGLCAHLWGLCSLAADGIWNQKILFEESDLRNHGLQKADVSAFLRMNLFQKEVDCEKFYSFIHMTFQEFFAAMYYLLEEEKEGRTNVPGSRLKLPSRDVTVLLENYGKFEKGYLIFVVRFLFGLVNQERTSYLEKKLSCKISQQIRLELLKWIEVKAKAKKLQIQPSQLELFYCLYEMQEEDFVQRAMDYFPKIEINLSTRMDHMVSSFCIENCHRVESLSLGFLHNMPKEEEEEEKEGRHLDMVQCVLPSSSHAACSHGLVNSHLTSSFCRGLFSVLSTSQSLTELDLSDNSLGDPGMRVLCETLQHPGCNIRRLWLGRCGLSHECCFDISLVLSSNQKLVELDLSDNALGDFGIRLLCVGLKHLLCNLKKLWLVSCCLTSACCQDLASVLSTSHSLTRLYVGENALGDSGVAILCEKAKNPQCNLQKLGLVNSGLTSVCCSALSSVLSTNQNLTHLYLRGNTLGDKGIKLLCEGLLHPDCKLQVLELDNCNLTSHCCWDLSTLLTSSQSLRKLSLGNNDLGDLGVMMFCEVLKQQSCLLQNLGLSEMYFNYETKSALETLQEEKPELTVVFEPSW

| SMILES | IC50 [nM] |
| --- | --- |
| COc1ccc(-c2nnc(N[C@H]3C[C@@](C)(O)C3)n3cncc23)c(C2CC2)c1 [Compound 319, (1s,3s)-3-{[1-(2-cyclopropyl-4-methoxyphenyl)imidazo[1,5-d][1,2,4]triazin-4-yl]amino}-1-methylcyclobutan-1-ol] | 10 to 100 |
| Cc1ccc(-c2nnc(N[C@H]3C[C@@](C)(O)C3)n3cncc23)c(OC(F)(F)F)c1 [Compound 332, (1s,3s)-1-methyl-3-({1-[4-methyl-2-(trifluoromethoxy)phenyl]imidazo[1,5-d][1,2,4]triazin-4-yl}amino)cyclobutan-1-ol] | 10 to 100 |
| COc1ccc(-c2nnc(N[C@@H]3CCCN(CCO)C3)n3cccc23)c(OC2CC2)c1 [Compound 143, 2-[(3R)-3-({1-[2-(cyclopropyloxy)-4-methoxyphenyl]pyrrolo[1,2-d][1,2,4]triazin-4-yl}amino)piperidin-1-yl]ethan-1-ol] | 10 to 100 |
| COc1ccc(-c2nnc(N[C@@H]3CCCN(CCO)C3)n3ccc(F)c23)c(OC(F)F)c1 [Compound 57, 2-[(3R)-3-({1-[2-(difluoromethoxy)-4-methoxyphenyl]-8-fluoropyrrolo[1,2-d][1,2,4]triazin-4-yl}amino)piperidin-1-yl]ethan-1-ol] | 10 to 100 |
| Cc1cc(C(F)(F)F)cc(OC(F)F)c1-c1nnc(N[C@@H]2CCCN(C)C2)n2cccc12 [Compound 49, 1-[2-(difluoromethoxy)-6-methyl-4-(trifluoromethyl)phenyl]-N-[(3R)-1-methylpiperidin-3-yl]pyrrolo[1,2-d][1,2,4]triazin-4-amine] | 10 to 100 |
| O[C@H]1CCCC[C@H]1Nc1nnc(-c2ccc(C(F)(F)F)cc2CC(F)(F)F)c2cncn12 [Compound 401, (1S,2R)-2-({1-[2-(2,2,2-trifluoroethyl)-4-(trifluoromethyl)phenyl]imidazo[1,5-d][1,2,4]triazin-4-yl}amino)cyclohexan-1-ol] | 10 to 100 |
| COc1ccc(-c2nnc(N[C@H]3C[C@@](C)(O)C3)n3nc(C)cc23)c(OC(F)(F)F)c1 [Compound 391, (1s,3s)-3-({4-[4-methoxy-2-(trifluoromethoxy)phenyl]-2-methylpyrazolo[1,5-d][1,2,4]triazin-7-yl}amino)-1-methylcyclobutan-1-ol] | 10 to 100 |
| COc1ccc(-c2nnc(NC[C@H](C)O)n3cccc23)c(OC(F)(F)F)c1 [Compound 65, (2S)-1-({1-[4-methoxy-2-(trifluoromethoxy)phenyl]pyrrolo[1,2-d][1,2,4]triazin-4-yl}amino)propan-2-ol] | 10 to 100 |
| O[C@H]1CCC[C@@H](Nc2nnc(-c3ccc(C(F)(F)F)cc3C(F)(F)F)c3cncn23)C1 [Compound 215, (1S,3R)-3-({1-[2,4-bis(trifluoromethyl)phenyl]imidazo[1,5-d][1,2,4]triazin-4-yl}amino)cyclohexan-1-ol] | 10 to 100 |
| CCN1C[C@H](F)C[C@@H](Nc2nnc(-c3ccc(Br)cc3C(F)(F)F)c3cncn23)C1 [Compound 205, 1-[4-bromo-2-(trifluoromethyl)phenyl]-N-[(3R,5R)-1-ethyl-5-fluoropiperidin-3-yl]imidazo[1,5-d][1,2,4]triazin-4-amine] | 10 to 100 |
| Cc1cc2c(-c3ccc(C(F)(F)F)cc3C(F)(F)F)nnc(N[C@H]3C[C@@](C)(O)C3)n2c1 [Compound 107, (1s,3s)-3-({1-[2,4-bis(trifluoromethyl)phenyl]-7-methylpyrrolo[1,2-d][1,2,4]triazin-4-yl}amino)-1-methylcyclobutan-1-ol] | 10 to 100 |
| Cc1cc2c(-c3ccc(C(F)(F)F)cc3CC(F)(F)F)nnc(N[C@@H]3CCCC[C@H]3O)n2n1 [Compound 389, (1R,2R)-2-({2-methyl-4-[2-(2,2,2-trifluoroethyl)-4-(trifluoromethyl)phenyl]pyrazolo[1,5-d][1,2,4]triazin-7-yl}amino)cyclohexan-1-ol] | 1 to 10 |
| O[C@@H]1CCCC[C@H]1Nc1nnc(-c2ccc(C(F)(F)F)cc2C(F)(F)F)c2ccnn12 [Compound 394, (1R,2R)-2-({4-[2,4-bis(trifluoromethyl)phenyl]pyrazolo[1,5-d][1,2,4]triazin-7-yl}amino)cyclohexan-1-ol] | 1 to 10 |
| O[C@H]1CCCC[C@@H]1Nc1nnc(-c2ccc(C(F)(F)F)cc2OC(F)(F)F)c2cccn12 [Compound 121, (1S,2S)-2-({1-[2-(trifluoromethoxy)-4-(trifluoromethyl)phenyl]pyrrolo[1,2-d][1,2,4]triazin-4-yl}amino)cyclohexan-1-ol] | 10 to 100 |
| CCN1CCC[C@@H](Nc2nnc(-c3ccc(C(F)(F)F)cc3OC(F)(F)F)c3cc(C)nn23)C1 [Compound 365, N-[(3R)-1-ethylpiperidin-3-yl]-2-methyl-4-[2-(trifluoromethoxy)-4-(trifluoromethyl)phenyl]pyrazolo[1,5-d][1,2,4]triazin-7-amine] | 1 to 10 |
| COCC1CC(Nc2nnc(-c3ccc(OC)cc3CC(F)(F)F)c3cncn23)C1 (centres unmarked) [Compound 326, N-[3-(methoxymethyl)cyclobutyl]-1-[4-methoxy-2-(2,2,2-trifluoroethyl)phenyl]imidazo[1,5-d][1,2,4]triazin-4-amine] | 10 to 100 |
| COc1ccc(-c2nnc(N[C@H]3C[C@@H](CO)C3)n3cncc23)c(CC(F)(F)F)c1 [Compound 314, [(1s,3s)-3-({1-[4-methoxy-2-(2,2,2-trifluoroethyl)phenyl]imidazo[1,5-d][1,2,4]triazin-4-yl}amino)cyclobutyl]methanol] | 1 to 10 |
| CN1CCC[C@@H](Nc2nnc(-c3ccc(Br)cc3C(F)(F)F)c3cncn23)C1 [Compound 200, 1-[4-bromo-2-(trifluoromethyl)phenyl]-N-[(3R)-1-methylpiperidin-3-yl]imidazo[1,5-d][1,2,4]triazin-4-amine] | 1 to 10 |
| COc1ccc(-c2nnc(N[C@@H]3CCCN(C)C3)n3cncc23)c(OCC(F)(F)F)c1 [Compound 304, 1-[4-methoxy-2-(2,2,2-trifluoroethoxy)phenyl]-N-[(3R)-1-methylpiperidin-3-yl]imidazo[1,5-d][1,2,4]triazin-4-amine] | 1 to 10 |
| C[C@@H](Nc1nnc(-c2ccc(C(F)(F)F)cc2OC(F)F)c2cccn12)c1cccc(O)c1 (single isomer, unassigned) [Compound 102] | 1 to 10 |

The remaining lines, values ahead:

| IC50 [nM] | SMILES |
| --- | --- |
| 1 to 10 | CCN1CCC[C@@H](Nc2nnc(-c3ccc(OC)cc3C3CC3)c3cc(C)nn23)C1 [Compound 379, 4-(2-cyclopropyl-4-methoxyphenyl)-N-[(3R)-1-ethylpiperidin-3-yl]-2-methylpyrazolo[1,5-d][1,2,4]triazin-7-amine] |
| 1 to 10 | CN1C[C@H](F)C[C@@H](Nc2nnc(-c3ccc(C(F)(F)F)cc3C(F)(F)F)c3cncn23)C1 [Compound 252, 1-[2,4-bis(trifluoromethyl)phenyl]-N-[(3R,5R)-5-fluoro-1-methylpiperidin-3-yl]imidazo[1,5-d][1,2,4]triazin-4-amine] |
| < 1 | CCN1CC[C@@H](O)[C@@H](Nc2nnc(-c3ccc(OC(F)F)cc3OC(F)(F)F)c3cccn23)C1 [Compound 171, (3S,4R)-3-({1-[4-(difluoromethoxy)-2-(trifluoromethoxy)phenyl]pyrrolo[1,2-d][1,2,4]triazin-4-yl}amino)-1-ethylpiperidin-4-ol] |
| 1 to 10 | COc1ccc(-c2nnc(NC(C)c3cccc(O)c3)n3ccc(F)c23)c(C(F)(F)F)c1 (centres unmarked) [Compound 149, 3-[1-({8-fluoro-1-[4-methoxy-2-(trifluoromethyl)phenyl]pyrrolo[1,2-d][1,2,4]triazin-4-yl}amino)ethyl]phenol] |
| 1 to 10 | Cc1ccc(-c2nnc(N[C@H]3C[C@@](C)(O)C3)n3cccc23)c(CC(F)(F)F)c1 [Compound 158, (1s,3s)-1-methyl-3-({1-[4-methyl-2-(2,2,2-trifluoroethyl)phenyl]pyrrolo[1,2-d][1,2,4]triazin-4-yl}amino)cyclobutan-1-ol] |
| < 1 | O[C@@H]1CCCC[C@H]1Nc1nnc(-c2ccc(C(F)(F)F)cc2CC(F)(F)F)c2cccn12 [Compound 90, (1R,2R)-2-({1-[2-(2,2,2-trifluoroethyl)-4-(trifluoromethyl)phenyl]pyrrolo[1,2-d][1,2,4]triazin-4-yl}amino)cyclohexan-1-ol] |
| 1 to 10 | Cc1cc2c(-c3ccc(C(F)(F)F)cc3C(F)(F)F)nnc(N[C@@H]3CCCN(C)C3)n2c1 [Compound 109, 1-[2,4-bis(trifluoromethyl)phenyl]-7-methyl-N-[(3R)-1-methylpiperidin-3-yl]pyrrolo[1,2-d][1,2,4]triazin-4-amine] |
| 1 to 10 | O[C@H]1CCC[C@@H](Nc2nnc(-c3ccc(C(F)(F)F)cc3OC(F)(F)F)c3cccn23)C1 [Compound 122, (1S,3R)-3-({1-[2-(trifluoromethoxy)-4-(trifluoromethyl)phenyl]pyrrolo[1,2-d][1,2,4]triazin-4-yl}amino)cyclohexan-1-ol] |
| < 1 | CCN1CCC[C@@H](Nc2nnc(-c3ccc(C(F)(F)F)cc3OC(F)(F)F)c3cncn23)C1 [Compound 229, N-[(3R)-1-ethylpiperidin-3-yl]-1-[2-(trifluoromethoxy)-4-(trifluoromethyl)phenyl]imidazo[1,5-d][1,2,4]triazin-4-amine] |
| 1 to 10 | O[C@@H]1CCCC[C@H]1Nc1nnc(-c2ccc(Br)cc2OC(F)F)c2cncn12 [Compound 306, (1R,2R)-2-({1-[4-bromo-2-(difluoromethoxy)phenyl]imidazo[1,5-d][1,2,4]triazin-4-yl}amino)cyclohexan-1-ol] |
| 1 to 10 | COc1ccc(-c2nnc(N[C@@H]3CCCN(CCO)C3)n3cncc23)c(C(F)(F)F)c1 [Compound 213, 2-[(3R)-3-({1-[4-methoxy-2-(trifluoromethyl)phenyl]imidazo[1,5-d][1,2,4]triazin-4-yl}amino)piperidin-1-yl]ethan-1-ol] |
| < 1 | Cc1cc2c(-c3ccc(Cl)cc3OC(F)F)nnc(N[C@@H]3CCCN(C)C3)n2n1 [Compound 358, 4-[4-chloro-2-(difluoromethoxy)phenyl]-2-methyl-N-[(3R)-1-methylpiperidin-3-yl]pyrazolo[1,5-d][1,2,4]triazin-7-amine] |

From US20250179078A1, “INHIBITORS OF NLRP3” (PTC THERAPEUTICS, INC., priority 2022, published 2025)
